Source: US9089572B2, “Inhibitors of p97” (California Institute of Technology, priority 2008, dated 2015)

Assays:
[1] = biological target: T532C-Cdc48 (Saccharomyces cerevisiae, UniProt P25694, T532C); experiment: In vitro ATP hydrolysis (malachite green ATPase assay), T532C-Cdc48; type: biochemical, yeast
Description: (§1) Compounds were tested for their ability to inhibit the ATPase activity of purified wild type murine p97 and T532C-Cdc48, a mutant of yeast Cdc48 in which the residue analogous to cysteine 522, threonine 532, was converted to cysteine.
(§2) To determine whether cysteine 522 is necessary for inhibition of p97 by compound 2, a mutant of p97 was constructed in which cysteine 522 was converted to either alanine (C522A-mp97) or threonine (C522T-mp97). The IC50 values of compound 2 were measured the against various enzymes during a 20-minute preincubation (see Table 2). Mutation of cysteine 522 in p97 to either alanine or threonine decreased sensitivity to compound 2 by greater than 100-fold. On the other hand, yeast Cdc48, which normally is quite resistant to compound 2, became nearly 30-fold more sensitive to the compound upon introduction of a cysteine in place of threonine 532.

[2] = biological target: T1, C522A-mp97 (Mus musculus, UniProt Q01853, C522A); experiment: In vitro ATP hydrolysis, C522A-mp97 mutant; type: biochemical, murine
T1 construct: made in house
Description: as §1, §2

[3] = biological target: T2, C522T-mp97 (Mus musculus, UniProt Q01853, C522T); experiment: In vitro ATP hydrolysis, C522T-mp97 mutant; type: biochemical, murine; conditions: 20-minute preincubation
T2 construct: made in house
Description: as §1, §2

[4] = biological target: Yeast Cdc48 (Saccharomyces cerevisiae, UniProt P25694); experiment: In vitro ATP hydrolysis, yeast Cdc48; type: biochemical
Description: as §1, §2

[5] = biological target: Human 19S ATPase; experiment: In vitro ATP hydrolysis, 19S ATPase of the 26S proteasome; type: biochemical; conditions: 20-minute preincubation
Description: as §2
To further address the specificity of inhibition by compound 2, its activity against two other AAA ATPases, NSF and the 26S proteasome, was assayed. Although NSF is known to be sensitive to thiol-reactive agents, it was more than 100-fold less sensitive to compound 2 than p97 (Table 2). […] The results with NSF and the 26S proteasome are noteworthy because both the active D1 domain of NSF and the Rpt3 subunit of the 26S proteasome have a cysteine in the position analogous to cysteine 522 of p97 (FIG. 3).

[6] = system: RPMI8226 cells; experiment: Accumulation of high molecular weight ubiquitin conjugates (anti-ubiquitin immunoblot), RPMI8226 cells; type: cell-based; conditions: 1 h at 37° C.
Text: To evaluate whether compound 2 can target p97 activity in cells, we sought to determine whether this compound induces accumulation of high molecular weight ubiquitin conjugates, since it is known that RNAi-mediated knockdown of p97 in mammalian cells has this effect (Wojcik, C. et al. J. Cell Sci. (2004) 117, 281-292). As a positive control for this experiment, the proteasome inhibitor MG132 was used. […] The cells were then harvested, lysed, and centrifuged to generate soluble and insoluble fractions. These fractions were then immunoblotted with anti-ubiquitin antibodies to detect accumulation of high molecular weight conjugates. Blots were also probed with anti-PSTAIRE antibodies as a loading control. […] This effect is particularly pronounced in the insoluble fraction.
To evaluate whether compound 8 can target p97 activity in cells, it was determined whether this compound induces accumulation of high molecular weight ubiquitin conjugates, since it is known that RNAi-mediated knockdown of p97 in mammalian cells has this effect (Wojcik, C. et al. J. Cell Sci. (2004) 117, 281-292). The proteasome inhibitor bortezomib (velcade) was employed as a positive control for this experiment. HeLa (FIG. 25) or RPMI8226 (FIG. 26) cells were treated with Velcade, compound 8, or a combination thereof for 1 h at 37° C. The cells were then harvested and cell lysates were immunoblotted with anti-ubiquitin antibodies to detect accumulation of high molecular weight conjugates. Blots were also probed with anti-PSTAIRE antibodies as a loading control.

[7] = system: Human 26S proteasome; experiment: Hydrolysis of fluorogenic proteasome substrate LLVY-AMC by purified 26S proteasome; type: biochemical; conditions: 19 nM 26S proteasome, 30 min preincubation, 60 μM LLVY-AMC
Description: Purified human 26S proteasome (19 nM) was incubated with either DMSO, MG132 or compound 2 for 30 min at room temperature and fluorogenic proteasome substrate LLVY-AMC (60 μM) was added to initiate the reaction. Fluorescence intensity was monitored every 3 min over 30 min.

[8] = system: Ub-G76V-GFP/HeLa cells; experiment: Degradation of pre-accumulated Ub-G76V-GFP (cycloheximide chase after MG132 washout); type: cell-based; conditions: for % K: relative to 0 μM
Description: To evaluate this possibility, an assay was developed to determine the rate of degradation of pre-accumulated Ub-G76V-GFP molecules. […] Cells were then washed with PBS three times remove the MG132. Cells were then refreshed by adding DMEM containing cycloheximide (50 μg/mL; to block production of more Ub-G76V-GFP) and test compounds (0˜10 μM) were added into cells. Eight 96-well plates were prepared and one of the plates was imaged at 25, 50, 70, 100, 110, 125, 145, or 170 min after washing with PBS three times. After washing out MG132, degradation of pre-accumulated Ub-G76V-GFP appears to follow pseudo-first order reaction. Rate constant (K; 1/min) can be determined from the slope of plotting Ln (Fold Accumulation) versus Time (min) (see FIG. 17 and FIG. 18).
Ub-G76V-GFP/HeLa cells were treated with MG132 (2 μM) for 1 h and washed with PBS three times. DMEM containing cycloheximide (50 μg/mL) and compound 8 (0-10 μM) was added into cells. Eight 96-well plates were prepared and one of the plates was imaged at 25, 50, 70, 100, 110, 125, 145, or 170 min after washing with PBS three times.

[9] = system: MCF7; experiment: MTT cell growth assay, MCF7; type: cell-based; conditions: Homo sapiens, 48 or 72 h, read-out: Cell line inhibition of growth GI50 MCF7
Description: (§3) To probe further the effect of compound 2 and related compounds 1, 3, 5, 6 and 7, various concentrations of these compounds were added to 13 different cell lines and incubated for 48 or 72 h. An MTT assay was then performed to evaluate cell growth and survival.

[10] = system: CCRF-CEM; experiment: MTT cell growth assay, CCRF-CEM; type: cell-based; conditions: Homo sapiens, 48 or 72 h, read-out: Cell line inhibition of growth GI50 CCRF-CEM
Description: as §3

[11] = system: HTC116 WT; experiment: MTT cell growth assay, HTC116 WT; type: cell-based; conditions: 48 or 72 h, read-out: Cell line inhibition of growth GI50 HTC116 WT
Description: as §3

Chain of T532C-Cdc48 (P25694 whole entry T532C): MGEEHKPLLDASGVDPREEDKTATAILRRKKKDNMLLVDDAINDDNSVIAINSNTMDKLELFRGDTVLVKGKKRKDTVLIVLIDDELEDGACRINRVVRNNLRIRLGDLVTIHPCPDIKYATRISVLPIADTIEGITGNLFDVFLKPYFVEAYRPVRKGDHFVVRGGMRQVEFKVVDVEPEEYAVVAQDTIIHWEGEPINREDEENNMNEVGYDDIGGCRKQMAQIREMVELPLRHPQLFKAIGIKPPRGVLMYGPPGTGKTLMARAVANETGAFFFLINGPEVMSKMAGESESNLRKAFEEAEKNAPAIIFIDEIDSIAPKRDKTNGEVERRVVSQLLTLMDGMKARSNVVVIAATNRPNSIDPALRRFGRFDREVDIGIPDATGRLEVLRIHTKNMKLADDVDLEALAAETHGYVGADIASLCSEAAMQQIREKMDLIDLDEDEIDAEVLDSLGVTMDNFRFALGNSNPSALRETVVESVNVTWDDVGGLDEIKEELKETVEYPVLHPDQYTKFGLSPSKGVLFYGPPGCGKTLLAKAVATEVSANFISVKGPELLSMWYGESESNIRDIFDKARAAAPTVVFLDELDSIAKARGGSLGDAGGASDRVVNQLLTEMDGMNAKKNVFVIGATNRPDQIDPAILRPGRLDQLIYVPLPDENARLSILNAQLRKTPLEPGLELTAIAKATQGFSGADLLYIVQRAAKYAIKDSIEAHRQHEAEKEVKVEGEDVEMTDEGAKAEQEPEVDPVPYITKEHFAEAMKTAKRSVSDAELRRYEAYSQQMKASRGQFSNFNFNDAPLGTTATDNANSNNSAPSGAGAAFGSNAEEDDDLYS
T1 sequence (Q01853 whole entry C522A): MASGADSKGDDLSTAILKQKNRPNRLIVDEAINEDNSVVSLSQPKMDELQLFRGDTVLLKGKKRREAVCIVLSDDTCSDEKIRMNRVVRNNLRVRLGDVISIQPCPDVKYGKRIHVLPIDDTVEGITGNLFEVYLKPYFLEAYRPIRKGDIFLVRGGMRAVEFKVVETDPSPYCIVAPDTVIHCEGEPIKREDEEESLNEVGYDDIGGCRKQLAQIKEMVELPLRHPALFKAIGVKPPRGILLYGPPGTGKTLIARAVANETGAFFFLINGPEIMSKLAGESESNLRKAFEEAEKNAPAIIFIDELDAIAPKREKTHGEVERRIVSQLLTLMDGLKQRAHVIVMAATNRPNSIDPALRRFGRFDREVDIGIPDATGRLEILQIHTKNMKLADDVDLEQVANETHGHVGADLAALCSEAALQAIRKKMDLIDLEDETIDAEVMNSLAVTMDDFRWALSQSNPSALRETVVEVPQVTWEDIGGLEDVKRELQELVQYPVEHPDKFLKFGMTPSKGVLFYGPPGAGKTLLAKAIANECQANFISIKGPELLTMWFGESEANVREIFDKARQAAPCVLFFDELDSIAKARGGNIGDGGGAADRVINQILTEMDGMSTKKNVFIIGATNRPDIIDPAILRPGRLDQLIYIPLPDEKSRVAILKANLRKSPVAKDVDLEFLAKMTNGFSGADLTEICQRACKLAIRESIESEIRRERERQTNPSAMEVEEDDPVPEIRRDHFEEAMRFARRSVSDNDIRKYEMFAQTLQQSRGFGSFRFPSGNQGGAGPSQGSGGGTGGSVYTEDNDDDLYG
Chain of Human 19S ATPase (P17980 whole entry): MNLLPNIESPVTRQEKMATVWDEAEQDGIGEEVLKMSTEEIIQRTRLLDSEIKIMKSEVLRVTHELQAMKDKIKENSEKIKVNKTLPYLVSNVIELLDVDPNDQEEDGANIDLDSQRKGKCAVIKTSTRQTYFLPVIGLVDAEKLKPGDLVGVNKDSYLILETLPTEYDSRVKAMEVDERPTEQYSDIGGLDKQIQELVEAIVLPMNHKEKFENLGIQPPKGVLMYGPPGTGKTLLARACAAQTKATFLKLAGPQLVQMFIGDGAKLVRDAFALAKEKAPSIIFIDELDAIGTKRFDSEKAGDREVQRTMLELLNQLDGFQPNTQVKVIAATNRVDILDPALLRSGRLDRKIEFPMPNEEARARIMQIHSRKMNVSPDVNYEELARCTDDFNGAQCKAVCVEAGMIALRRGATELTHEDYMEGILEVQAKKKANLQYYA
Chain of Human 19S ATPase (P62333 whole entry, further chain): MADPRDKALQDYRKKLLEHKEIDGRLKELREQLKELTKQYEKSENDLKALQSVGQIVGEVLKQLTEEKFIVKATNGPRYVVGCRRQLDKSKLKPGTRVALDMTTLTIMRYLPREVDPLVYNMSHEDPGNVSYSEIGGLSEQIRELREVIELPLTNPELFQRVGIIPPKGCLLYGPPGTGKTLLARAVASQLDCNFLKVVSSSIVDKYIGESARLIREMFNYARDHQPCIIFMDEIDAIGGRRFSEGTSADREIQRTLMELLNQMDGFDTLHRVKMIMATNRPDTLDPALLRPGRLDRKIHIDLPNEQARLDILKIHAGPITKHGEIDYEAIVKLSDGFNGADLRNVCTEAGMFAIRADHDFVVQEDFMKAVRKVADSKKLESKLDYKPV
Chain of Human 19S ATPase (P62195 2-406, further chain): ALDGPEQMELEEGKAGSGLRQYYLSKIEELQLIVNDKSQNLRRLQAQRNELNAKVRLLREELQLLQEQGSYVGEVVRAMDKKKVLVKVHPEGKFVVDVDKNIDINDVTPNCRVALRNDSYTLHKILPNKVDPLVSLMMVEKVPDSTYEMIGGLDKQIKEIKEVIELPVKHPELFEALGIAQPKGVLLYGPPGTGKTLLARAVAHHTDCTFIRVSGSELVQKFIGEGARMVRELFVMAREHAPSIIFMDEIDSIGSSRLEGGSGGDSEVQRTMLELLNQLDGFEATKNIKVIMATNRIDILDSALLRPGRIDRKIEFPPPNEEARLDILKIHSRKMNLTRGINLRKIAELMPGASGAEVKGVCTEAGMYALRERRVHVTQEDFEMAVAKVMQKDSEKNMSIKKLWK
Chain of Human 19S ATPase (P35998 2-433, further chain): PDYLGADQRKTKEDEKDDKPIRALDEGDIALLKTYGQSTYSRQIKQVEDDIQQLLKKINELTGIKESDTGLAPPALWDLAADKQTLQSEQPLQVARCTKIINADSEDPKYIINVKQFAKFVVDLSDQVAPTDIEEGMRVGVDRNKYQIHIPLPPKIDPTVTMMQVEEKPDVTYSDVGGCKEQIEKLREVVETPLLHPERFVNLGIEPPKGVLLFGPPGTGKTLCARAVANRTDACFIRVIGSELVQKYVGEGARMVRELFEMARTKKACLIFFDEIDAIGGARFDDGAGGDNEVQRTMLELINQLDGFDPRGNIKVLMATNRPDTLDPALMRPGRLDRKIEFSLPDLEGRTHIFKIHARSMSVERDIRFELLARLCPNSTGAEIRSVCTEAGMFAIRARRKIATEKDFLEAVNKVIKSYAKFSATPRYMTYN
Chain of Human 19S ATPase (P62191 2-440, further chain): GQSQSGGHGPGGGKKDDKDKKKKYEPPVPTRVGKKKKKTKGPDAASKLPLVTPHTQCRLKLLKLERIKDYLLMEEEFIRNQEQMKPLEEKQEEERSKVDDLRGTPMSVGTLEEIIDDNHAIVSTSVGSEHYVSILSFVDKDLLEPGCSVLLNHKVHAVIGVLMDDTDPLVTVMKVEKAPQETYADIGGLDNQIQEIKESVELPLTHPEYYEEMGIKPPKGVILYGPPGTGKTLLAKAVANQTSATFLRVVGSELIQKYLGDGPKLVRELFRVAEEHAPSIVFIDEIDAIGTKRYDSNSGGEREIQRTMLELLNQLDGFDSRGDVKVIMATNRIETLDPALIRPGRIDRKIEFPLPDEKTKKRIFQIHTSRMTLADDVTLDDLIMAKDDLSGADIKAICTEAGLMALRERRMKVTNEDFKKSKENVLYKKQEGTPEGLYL
Chain of Human 19S ATPase (P43686 whole entry, further chain): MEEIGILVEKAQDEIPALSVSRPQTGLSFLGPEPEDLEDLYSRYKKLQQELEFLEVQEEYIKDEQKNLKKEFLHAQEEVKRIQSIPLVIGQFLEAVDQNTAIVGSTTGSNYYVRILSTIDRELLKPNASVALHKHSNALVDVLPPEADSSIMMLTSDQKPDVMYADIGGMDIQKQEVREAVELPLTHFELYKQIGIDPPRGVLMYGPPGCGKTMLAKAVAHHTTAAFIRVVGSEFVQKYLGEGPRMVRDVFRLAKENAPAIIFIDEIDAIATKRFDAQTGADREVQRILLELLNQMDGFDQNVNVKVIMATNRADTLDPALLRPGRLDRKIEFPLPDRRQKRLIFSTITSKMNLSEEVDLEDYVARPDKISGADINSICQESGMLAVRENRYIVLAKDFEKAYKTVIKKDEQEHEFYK
T2 sequence (Q01853 whole entry C522T): as the sequence (Q01853 whole entry C522A) above, with A522T counted along it
Chain of Yeast Cdc48 (P25694 whole entry): as the sequence (P25694 whole entry T532C) above, with C532T counted along it

With `C=CC(=O)Nc1ncnc2c1c(-c1ccccc1)nn2C(C)(C)C` [Compound 2] the IC50 [1] was 14 ± 5 µM, the “increase in sensitivity of yeast Cdc48 on introduction of cysteine in place of threonine 532” value ([1]; T532C-Cdc48 vs yeast Cdc48) was ~30 fold and the IC50 ([2]; 20-minute preincubation) was 110 ± 33 µM. For the same compound, the “decrease in sensitivity on mutation of cysteine 522 in p97 to alanine or threonine” value ([2]; C522A or C522T vs wild type p97) was “greater than 100 fold”, the IC50 [3] was 82 ± 45 µM and the IC50 [4] was 376 ± 95 µM. For the same compound, the IC50 [5] was 75 µM, the “accumulation of high molecular weight ubiquitin conjugates, RPMI8226 cells” value [6] was “caused accumulation of high molecular weight ubiquitin conjugates” and the “inhibition of hydrolysis of proteasome substrate LLVY-AMC” value [7] was “does not inhibit hydrolysis”. For the same compound, the “K, rate constant of Ub-G76V-GFP degradation” value (shortened to “K, rate constant”) ([8]; 0.01 μM) was 0.0318 min⁻¹, the “% K” value ([8]; 0.01 μM) was 83% and the “K, rate constant” value ([8]; 0.04 μM) was 0.0306 min⁻¹. The “% K” value ([8]; 0.04 μM) was 80%, the “K, rate constant” value ([8]; 0.16 μM) was 0.0292 min⁻¹ and the “% K” value ([8]; 0.16 μM) was 76%. The “K, rate constant” value ([8]; 0.63 μM) was 0.0237 min⁻¹, the “% K” value ([8]; 0.63 μM) was 62% and the “K, rate constant” value ([8]; 2.5 μM) was 0.0189 min⁻¹. For the same compound, the “% K” value ([8]; 2.5 μM) was 49%, the “K, rate constant” value ([8]; 10 μM) was 0.0015 min⁻¹ and the “% K” value ([8]; 10 μM) was 4%. The IC50 ([8]; Homo sapiens, HeLa, 1 h, read-out: IC50 on the decay of Ub-G76V-GFP) was 1.25 ± 0.47 µM, the GI50 [9] was 0.5 ± 0.1 µM and the GI50 [10] was 1.6 ± 0.8 µM. The GI50 [11] was 2.4 ± 1.2 µM.
